Data from patent US10905672B2, “Combination of baclofen, acamprosate and medium chain triglycerides for the treatment of neurological disorders” (PHARNEXT, priority 2014, dated 2021).
Entries after “also recorded” stand apart in the source; their conditions may differ.

How the values were obtained:
[1] = tested on: Abeta 25-35 intoxicated mice; experiment: Step-through passive avoidance test (contextual long-term memory) after icv Abeta 25-35; type: in vivo, Swiss mice
Description: (§1) Male Swiss mice are used throughout the study. Animals are housed in plastic cages, with free access to laboratory chow and water, except during behavioral experiments, and kept in a regulated environment, under a 12 h light/dark cycle (light on at 8:00 a.m.). Experiments are carried out in a soundproof and air-regulated experimental room to which mice have been habituated at least 30 min before each experiment.
Drug(s) is/are administered daily by gavage (per os). The Abeta 25-35 peptide and scrambled Abeta 25-35 peptide (control) have been dissolved in sterile bidistilled water, and stored at −20° C. until use. The Abeta peptides are then administered intracerebroventricularly (icy). In brief, each mouse is anesthetized lightly with ether, and a gauge stainless-steel needle is inserted unilaterally 1 mm to the right of the midline point equidistant from each eye, at an equal distance between the eyes and the ears and perpendicular to the plane of the skull. Peptides or vehicle are delivered gradually within approximately 3 s. […] The administration site is checked by injecting Indian ink in preliminary experiments. Neither insertion of the needle nor injection of the vehicle has a significant influence on survival, behavioral responses or cognitive functions. […]
On days 8 and 9, the contextual long-term memory of the animals is assessed using the step-through type passive avoidance procedure.
The apparatus is a two-compartment (15×20×15 cm high) box with one compartment being illuminated with white polyvinylchloride walls and the other compartment darkened with black polyvinylchloride walls and a grid floor. […] The step-through latency, that is, the latency spent to enter the darkened compartment, and the number of vocalizations is recorded. […] After 5 s the door is raised, and the step-through latency and the escape latency, i.e., the time spent to return into the white compartment, are recorded up to 300 s.

[2] = tested on: Abeta 25-35 intoxicated mice; experiment: Spontaneous alternation performance, Y-maze test (spatial working memory) after icv Abeta 25-35; type: in vivo, Swiss mice; settings: tested day 7
Description: as §1
Drug(s) is/are administered daily by gavage (per os). The Abeta 25-35 peptide and scrambled Abeta 25-35 peptide (control) have been dissolved in sterile bidistilled water, and stored at −20° C. until use. The Abeta peptides are then administered intracerebroventricularly (icy). In brief, each mouse is anesthetized lightly with ether, and a gauge stainless-steel needle is inserted unilaterally 1 mm to the right of the midline point equidistant from each eye, at an equal distance between the eyes and the ears and perpendicular to the plane of the skull. Peptides or vehicle are delivered gradually within approximately 3 s. […] The administration site is checked by injecting Indian ink in preliminary experiments. Neither insertion of the needle nor injection of the vehicle has a significant influence on survival, behavioral responses or cognitive functions.
On day −1, i.e., 24 h before the Abeta 25-35 peptide injection, drugs, candidate combinations, baclofen acamprosate mix, or the vehicle solution are administered per os by gavage twice daily (at 8:00 a.m. and 6:00 p.m.), and caprylic triglyceride is administered per os by gavage once daily (at 8:00 a.m.).
On day 0 (at 10:00 a.m.), mice are injected icy with Abeta 25-35 peptide or scrambled Abeta 25-35 peptide (control) in a final volume of 3 μL (3 mM).
Between day 0 and day 7, drugs, drug combinations or the vehicle solution are administered per os by gavage once or twice daily (at 8:00 a.m. for caprylic triglyceride or at 8:00 a.m. and 6:00 p.m. for baclofen and acamprosate). As a positive control, one animal group receives donepezil (reference compound—1 mg/kg/day) per os by gavage in a single injection (at 8:00 a.m.). Drugs are solubilized in water and freshly prepared just before each gavage administration.
On day 7, all animals are tested for spontaneous alternation performance in the Y-maze test, an index of spatial working memory (short-term memory).
On day 7, all animals are tested for spontaneous alternation performance in the Y-maze, an index of spatial working memory. The Y-maze is made of grey polyvinylchloride. Each arm is 40 cm long, 13 cm high, 3 cm wide at the bottom, 10 cm wide at the top, and converges at an equal angle. Each mouse is placed at the end of one arm and allowed to move freely through the maze during an 8 min session. The series of arm entries, including possible returns into the same arm, are checked visually. An alternation is defined as entries into all three arms on consecutive occasions. The number of maximum alternations is therefore the total number of arm entries minus two and the percentage of alternation is calculated as (actual alternations/maximum alternations)×100. Parameters include the percentage of alternation (memory index) and total number of arm entries (exploration index). Animals that show an extreme behavior (alternation percentage <25% or >85% or number of arm entries <10) are discarded. Usually, this accounts for 0-5% of the animals. […]

NCC(CC(=O)O)c1ccc(Cl)cc1 (centres unmarked) [Baclofen, baclofen]
effect on memory defects (step-through latency) compared to Abeta 25-35 intoxicated animals ([1]; baclofen monotherapy, 480 μg/kg/bid per os, FIG. 2-B): does not provide any improvement | effect on working memory (percentage of alternation) compared to Abeta 25-35 intoxicated animals ([2]; baclofen alone, 480 μg/kg/bid per os, FIG. 1-B): does not improve working memory | effect on working memory (percentage of alternation) compared to Abeta 25-35 intoxicated animals ([2]; baclofen alone, 480 μg/kg/bid per os, FIG. 1-B, listed as baclofen): No significant effect

CC(=O)NCCCS(=O)(=O)O [acamprosate]
effect on memory defects (step-through latency) compared to Abeta 25-35 intoxicated animals ([1]; acamprosate monotherapy, 32 μg/kg/bid per os, FIG. 2-B): does not provide any improvement | effect on working memory (percentage of alternation) compared to Abeta 25-35 intoxicated animals ([2]; acamprosate alone, 32 μg/kg/bid per os, FIG. 1-B): No significant effect; also recorded: does not improve working memory

CCCCCCCC(=O)OCC(COC(=O)CCCCCCC)OC(=O)CCCCCCC [C8 MCT, caprylic triglyceride]
effect on memory defects (step-through latency) compared to Abeta 25-35 intoxicated animals ([1]; C8 MCT alone, 0.555, 1.66 and 5 g/kg/d per os, FIG. 2-A): does not provide any statistically significant effect | effect on working memory (percentage of alternation) compared to Abeta 25-35 intoxicated animals ([2]; caprylic triglyceride alone, 0.555, 1.66 and 5 g/kg/d per os once daily, FIG. 1-A): does not improve working memory | effect on working memory (percentage of alternation) compared to Abeta 25-35 intoxicated animals ([2]; caprylic triglyceride alone, 0.555, 1.66 and 5 g/kg/d per os once daily, FIG. 1-A, listed as caprylic triglyceride): No significant effect
